Among the data in the supplement of paper PMC10307832 are relative viability values, retold here.

Experiment in all cases: relative viability (nuclei count vs DMSO), 5 days (fraction); higher = more cells survive
Compound in experiment [1]: CC1CC(=O)N(C2=CN=C(N=C2N1C3CCCC3)NC4=C(C=C(C=C4)C(=O)NC5CCN(CC5)C)OC)C [NPK76-II-72-1] + Cc1nc(NC(=O)N2CCC[C@H]2C(N)=O)sc1-c1ccnc(C(C)(C)C(F)(F)F)c1 [Alpelisib] (partner 2 µM)
The method in brief: (§1)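 Nuclei were stained with Hoechst during a one-step fixation (final 0.05% Triton X-100, 1% formaldehyde, 1 ug/ml Hoechst) carried out 5 days after dosing, then counted on 4× images. The cells, lung cancer lines in 1536-well plates, had been dosed by pin tool the day after seeding with one drug alone or a fixed anchor-drug dose plus five library-drug doses (not always all listed) in √10 steps. Relative viability is the nuclei count in treated wells divided by that in vehicle wells, and each value is the median of duplicate plates.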

Compound in experiment [2]: CC1CC(=O)N(C2=CN=C(N=C2N1C3CCCC3)NC4=C(C=C(C=C4)C(=O)NC5CCN(CC5)C)OC)C [NPK76-II-72-1] + CCNC(=O)c1noc(-c2cc(C(C)C)c(O)cc2O)c1-c1ccc(CN2CCOCC2)cc1 [Luminespib] (partner 0.01 µM)
The method in brief: as §1

Compound in experiment [3]: CC1CC(=O)N(C2=CN=C(N=C2N1C3CCCC3)NC4=C(C=C(C=C4)C(=O)NC5CCN(CC5)C)OC)C [NPK76-II-72-1] + CC(=O)c1c(C)c2cnc(Nc3ccc(N4CCNCC4)cn3)nc2n(C2CCCC2)c1=O [Palbociclib] (partner 0.5 µM)
The method in brief:
as §1

Compound in experiment [4]: CC1CC(=O)N(C2=CN=C(N=C2N1C3CCCC3)NC4=C(C=C(C=C4)C(=O)NC5CCN(CC5)C)OC)C [NPK76-II-72-1] + N=C(N)NC(=N)NCCc1ccccc1 [Phenformin] (partner 250 µM)
The method in brief: as §1

Take UMC-11: the relative viability was 0.967 in experiment [1] (first compound 0.01 µM); 0.994 in experiment [1] (first compound 0.03162 µM); 1.02 in experiment [1] (first compound 0.1 µM); 0.835 in experiment [1] (first compound 0.3162 µM); 0.978 in experiment [1] (first compound 1 µM); 0.997 in experiment [2] (first compound 0.01 µM). The relative viability in experiment [2] (first compound 0.03162 µM) was found to be 1; in experiment [2] (first compound 0.1 µM), 0.934; in experiment [2] (first compound 1 µM), 0.988; in experiment [3] (first compound 0.01 µM), 0.301; in experiment [3] (first compound 0.03162 µM) it was 0.326; in experiment [3] (first compound 0.1 µM) it was 0.265. The relative viability in experiment [3] (first compound 0.3162 µM) turned out to be 0.355; in experiment [3] (first compound 1 µM), 0.355; in experiment [4] (first compound 0.01 µM) it was 0.318; in experiment [4] (first compound 0.03162 µM) it was 0.32; in experiment [4] (first compound 0.1 µM), 0.346; in experiment [4] (first compound 1 µM), 0.344.
